From patent US20040191168A1, “Tumor cell killing by cell cycle checkpoint abrogation combined with Inhibition of the classical mitogen activated protein (map) kinase pathway” (priority 2000, published 2004)
Where two headings read alike, the source gives them in different places.

Legend:
U937 cells [1] = assay: Morphological assessment of apoptosis (Wright-Giemsa cytospins) in U937 cells; format: cell-based, human; conditions: for effect on apoptosis in PD184352/UCN-01-treated cells / effect on induction of apoptosis by UCN-01 and PD184352: UCN-01 150 nM + PD184352 10 μM; for effect on apoptosis in PD184352/UCN-01-treated cells: SB203580 10 μM, CHX 1 mM; for Apoptotic cells (%): PD184352 10 μM, GFX 1 μM, safingol 2 μM, mean ± SD; for effect on induction of apoptosis by UCN-01 and PD184352: 10 h, caspase inhibitor 20 μM
Experimental: (§1) Experimental Format. All of the experiments were performed using logarithmically growing cells (3-5×10^5 cells/ml). Cell suspensions were placed in sterile 25 cm^2 T-flasks (Corning, Corning, N.Y.) and incubated with MEK or PKC inhibitors for 30 min at 37° C. At the end of this period, UCN-01 (or in some cases, caffeine) was added to the suspension, and the flasks were placed in 37° C./5% CO2 incubator at various intervals, generally 18 h. In some studies, the p38 MAP kinase inhibitor SB203580 was added concurrently with MEK inhibitors. After drug treatment, cells were harvested and subjected to further analysis as described below.
Analysis of Apoptosis. […] For each condition, 5 to 10 randomly selected fields/condition were evaluated, encompassing at least 500 cells (Vrana and Grant, 2001). To confirm the results of morphological analysis, in some cases cells were also evaluated by TUNEL staining (Gorczyca et al., 1993) and assessment of oligonucleosomal DNA fragmentation of total DNA. DNA fragmentation was analyzed by 1.8% agarose gel electrophoresis as described previously (Jarvis et al., 1994). For TUNEL staining, cytocentrifuge preparations were obtained and fixed with 4% formaldehyde. The slides were treated with acetic acid/ethanol (1:2), stained with terminal transferase reaction mixture containing terminal transferase reaction buffer, 0.25 units/ ml terminal transferase, 2.5 mM CoCl2, and 2 pmol fluorescein-12-dUTP (Boehringer Mannheim, Indianapolis, Ind.), and visualized using fluorescence microscopy.

U937 cells [2] = assay: Loss of mitochondrial membrane potential (reduced DiOC6 uptake, flow cytometry) in U937 cells; format: cell-based, human; conditions: for effect on mitochondrial injury (loss of ΔΨm) in PD184352/UCN-01-treated cells / effect on loss of ΔΨm by UCN-01 and PD184352: UCN-01 150 nM + PD184352 10 μM; for effect on mitochondrial injury (loss of ΔΨm) in PD184352/UCN-01-treated cells: SB203580 10 μM, CHX 1 mM; for "Low" DiOC6 (% cells): PD184352 10 μM, GFX 1 μM, safingol 2 μM, mean ± SD; for effect on loss of ΔΨm by UCN-01 and PD184352: 10 h, caspase inhibitor 20 μM
Experimental: as §1
Analysis of Mitochondrial Membrane Potential (ΔΨm). Cells 2×10^5 were incubated with 40 nM DiOC6 (Molecular Probes Inc., Eugene, Oreg.) in PBS at 37° C. for 20 min and then analyzed by flow cytometry as described previously (Wang et al., 1999).

MAPK/ERK = assay: p42 MAPK immune complex kinase assay in carcinoma cells; format: cell-based, human; conditions: MCF7, MDA-MB-231, T47D and DU145 cells; UCN-01 150 nM; MEK1/2 inhibitors (PD98059 25 μM, PD184352 10 μM, U0126 5 μM) given with UCN-01
Experimental: Immunoprecipitations from Lysates. Fifty microliters of Protein A agarose (Ag) slurry (25 μl bead volume) was washed twice with 1 ml PBS containing 0.1% (v/v) Tween 20, and resuspended in 0.1 ml of the same buffer. Antibodies (2 μg, 20 μl), serum (20 μl) were added to each tube and incubated (3 h, 4° C.). For pre-conjugated antibodies,10 μl of slurry (4 μg antibody) was used. Clarified equal aliquots of lysates (0.25 ml, 100 μg total protein) were mixed with Ag-conjugated antibodies in duplicate using gentle agitation (2.5 h, 4° C.). Ag-antibody-antigen complexes were recovered by centrifugation, the supernatant discarded, and washed (10 min) sequentially with 0.5 ml buffer A (twice), PBS and buffer B [25 mM Hepes, pH 7.4, 0.1 mM Na3VO4].
Assay of p42^MAPK activity. Immunoprecipitates were incubated (final volume 50 μl ) with 50 μl of buffer B containing 0.2 mM [γ-^32P]ATP (5000 cpm/pmol), 1 μM Microcystin-LR, 0.5 mg/ml myelin basic protein NP), which initiated reactions at time=0. After 20 min., 40 μl of the reaction mixtures were spotted onto a 2 cm circle of P81 paper (Whatman, Maidstone, England) and immediately placed into 180 mM phosphoric acid. Papers were washed four times (10 min each) with phosphoric acid, and once with acetone, and ^32P-incorporation into MBP was quantified by liquid scintillation spectroscopy.

DU145 cells = assay: Colony forming (clonogenic) assay in DU145 cells; format: cell-based, human; conditions: 25 μM PD98059, 150 nM UCN-01, replated 48 h, ± SEM
Experimental: (§2) Colony forming (clonogenic) assay. Cells were plated 36 h prior to experimentation. Cells were pre-treated with MEK1/2 inhibitor as indicated, 2 h prior to exposure. Cells were irradiated (2 Gy). After a further 48 h, cells were isolated by tryptic digestion and single cell suspensions plated on Linbro® plates at densities of 500 cells/well and 1000 cells/well. Colony formation was defined as a colony of 50 cells or greater, 10 days after plating.

MCF7 cells [3] = assay: Colony forming (clonogenic) assay in MCF7 cells; format: cell-based, human; conditions: 25 μM PD98059, 150 nM UCN-01, replated 48 h, ± SEM
Experimental: as §2

T47D cells = assay: Colony forming (clonogenic) assay in T47D cells; format: cell-based, human; conditions: 25 μM PD98059, 150 nM UCN-01, replated 48 h, ± SEM
Experimental: as §2

MDA-MB-231 cells [4] = assay: Colony forming (clonogenic) assay in MDA-MB-231 cells; format: cell-based, human; conditions: MDA-MB-231 (MDA), 25 μM PD98059, 150 nM UCN-01, replated 48 h, ± SEM
Experimental: as §2

MDA-MB-231 cells [5] = assay: TUNEL apoptosis in MDA-MB-231 cells; format: cell-based, human; conditions: MDA-MB-231, 24 h; with 150 nM UCN-01; PD184352 10 μM, U0126 5 μM; FIG. 8A
Description: (§3) Terminal Uridyl-Nucleotide End Labeling (TUNEL) for apoptosis.

MCF7 cells [6] = conditions: MCF7, 24 h; with 150 nM UCN-01; PD184352 10 μM, U0126 5 μM; FIG. 8B
Experimental: Terminal Uridyl-Nucleotide End Labeling (TUNEL) for apoptosis. […] Cells were isolated 24 h after irradiation by trypsinizationi followed by centrifugation onto glass slides (cytospin). Terminal Uridyl-Nucleotide End Labeling (TUNEL) was performed on these cells as described previously [Wang et al., 1999; Park et al., 1999]. Randomly selected fields of fixed cells (150 cells per field, n=5 per slide) were counted initially using propidium iodide counter stain, followed by examination and counting of TUNEL positive staining cells of the same field under FITC/fluorescence light.

[7] = system: mammary and prostate carcinoma cells; assay: Apoptosis by double stranded DNA breaks (TUNEL) in carcinoma cells, all cell types examined; format: cell-based, human; conditions: for effect on potentiation of apoptosis by MEK1/2 inhibitor and UCN-01: carcinoma cells, 24 h, 25 μM PD98059 + 150 nM UCN-01, caspase inhibitor 20 μM
Description: as §3

## C[C@@H]1C[C@@H]([C@H](O)CC2CC(=O)NC(=O)C2)C(=O)[C@@H](C)C1 [CHX, cycloheximide]
U937 cells [1]; U937 cells, 18 h
  effect on apoptosis in PD184352/UCN-01-treated cells: not attenuated
U937 cells [2]; 18 h
  effect on mitochondrial injury (loss of ΔΨm) in PD184352/UCN-01-treated cells: not attenuated

## Cn1c(=O)c2c(ncn2C)n(C)c1=O [Caffeine]
U937 cells [1]; U937 cells, 18 h, caffeine 2 mM with PD184352 10 μM, FIG. 4A
  apoptosis in PD184352-treated cells: substantially increased
U937 cells [2]; 18 h, caffeine 2 mM with PD184352 10 μM, FIG. 4A
  mitochondrial damage (reduction in ΔΨm) in PD184352-treated cells: substantially increased

## O=c1cc(N2CCOCC2)oc2c(-c3ccccc3)cccc12 [LY294002]
U937 cells [1]; U937 cells, 24 hr, 100 nM UCN-01, 10 μM LY294002, FIG. 14
  percentage of apoptotic cells: about 20%

## COc1cccc(-c2cc(=O)c3ccccc3o2)c1N [PD98059]
U937 cells [1]; U937 cells, 24 h, with 200 nM UCN-01, PD98059 50 μM, U0126 20 μM (FIG. 1C, D)
  cell death (morphological features of apoptosis) on coadministration with UCN-01: marked potentiation of cell death
MAPK/ERK
  MAPK/ERK activity (immune complex kinase assay): opposed
DU145 cells; DU145, 2 Gy
  clonogenic survival (colonies, normalized to control unirradiated cells = 100%): 65 ± 2%
DU145 cells; DU145, mock irradiated
  clonogenic survival (colonies, normalized to control unirradiated cells = 100%): 99 ± 6%
MCF7 cells [3]; MCF7, 2 Gy
  clonogenic survival (colonies, normalized to control unirradiated cells = 100%): 39 ± 3 %
MCF7 cells [3]; MCF7, mock irradiated
  clonogenic survival (colonies, normalized to control unirradiated cells = 100%): 91 ± 5%
T47D cells; 2 Gy
  clonogenic survival (colonies, normalized to control unirradiated cells = 100%): 69 ± 5%
T47D cells; mock irradiated
  clonogenic survival (colonies, normalized to control unirradiated cells = 100%): 97 ± 2%
MDA-MB-231 cells [4]; 2 Gy
  clonogenic survival (colonies, normalized to control unirradiated cells = 100%): 44 ± 1 %
MDA-MB-231 cells [4]; mock irradiated
  clonogenic survival (colonies, normalized to control unirradiated cells = 100%): 91 ± 1%

## C[S+]([O-])c1ccc(-c2nc(-c3ccncc3)c(-c3ccc(F)cc3)[nH]2)cc1 (centres unmarked) [SB203580]
U937 cells [1]; U937 cells, 18 h
  effect on apoptosis in PD184352/UCN-01-treated cells: only partially attenuated
U937 cells [2]; 18 h
  effect on mitochondrial injury (loss of ΔΨm) in PD184352/UCN-01-treated cells: only partially attenuated

## CCCCCCCCCCCCCCC[C@H](O)[C@@H](N)CO [Safingol]
U937 cells [1]; U937 cells, 18 h
  Apoptotic cells (%): 1.9 ± 0.2%
U937 cells [2]; 18 h
  "Low" DiOC6 (% cells): 13.6 ± 0.8%

## N#CC(=C(/N)Sc1ccccc1N)/C(C#N)=C(\N)Sc1ccccc1N [U0126]
U937 cells [1]
  cell death (morphological features of apoptosis) on coadministration with UCN-01: marked potentiation of cell death
MAPK/ERK
  MAPK/ERK activity (immune complex kinase assay): opposed
MDA-MB-231 cells [5]
  apoptosis in combination with UCN-01: enhanced apoptosis
MCF7 cells [6]
  apoptosis in combination with UCN-01: enhanced apoptosis

## IETD
U937 cells [1]; U937 cells
  effect on induction of apoptosis by UCN-01 and PD184352: ineffective
U937 cells [2]
  effect on loss of ΔΨm by UCN-01 and PD184352: ineffective
[7]
  effect on potentiation of apoptosis by MEK1/2 inhibitor and UCN-01: partially attenuated

## ZVAD-fmk
U937 cells [1]; U937 cells
  effect on induction of apoptosis by UCN-01 and PD184352: blocked
U937 cells [2]
  effect on loss of ΔΨm by UCN-01 and PD184352: blocked
[7]
  effect on potentiation of apoptosis by MEK1/2 inhibitor and UCN-01: abolished

## bisindolylmaleimide [GFX]
U937 cells [1]; U937 cells, 18 h
  Apoptotic cells (%): 1.9 ± 0.2%
U937 cells [2]; 18 h
  "Low" DiOC6 (% cells): 13.2 ± 0.6%
[7]; all carcinoma cell types examined, bisindolylmaleimide 1 μM in place of UCN-01
  apoptosis after 24 h: did not mimic the actions of UCN-01
